Where “and” joins values, the source holds several entries; their conditions need not be identical. Equal entries are not always repeated.
Test system: NCI/ADR-RES complex spheroid viability
Assay: Anticancer human tumor NCI/ADR-RES cell line growth inhibition;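 note: spheroids exposed to compounds for 7 days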;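 for viability, T/C: 100% = DMSO vehicle treated spheroids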
Conditions: for viability, T/C: stronger effect = lower value
From the text: Multicellular complex tumor spheroid response to LSD1 Inhibitor Iadademstat in combination with a variety of drugs and investigational agents in selected tumor cell lines
The current study was undertaken to assess response to LSD1 inhibitors in combination with standard-of-care drugs and investigational agents in solid tumor complex spheroid models as well as in the K-562 leukemia. Complex spheroids include a stromal component modeled by human endothelial cells (HUVEC) and fibroblasts modeled by human mesenchymal stem cells (MSCs). The concentration ranges selected for each drug and investigational agent were based upon clinically achievable concentrations if the clinical Cmax of the agent was known.
Compounds. The drugs and investigational agents used in this study are listed on Table 1. All of the agents used, including staurosporine (NSC755774) and gemcitabine (NSC613327), were obtained from the Developmental Therapeutics Program, NCI. FDA-approved anticancer drugs are available from the NCI at http://dtp.nci.nih.gov/branches/dscb/oncology_drugset_explanation.html. Drugs and investigational agents were >95% pure by proton nuclear magnetic resonance (NMR) and liquid chromatography/mass spectrometry (LC/MS). Stock solutions were prepared at 400x in DMSO, stored at -70 degrees C, and diluted in fresh medium prior to their use. The final concentration of DMSO in cell culture wells never exceeded 0.25% (v/v). The FDA-approved anticancer drug set is available from the Developmental Therapeutics Program at https://dtp.cancer.gov/organization/dscb/obtaining/available_plates.htm. All drugs and investigational agents were tested over a range starting from a high concentration at or near the clinical Cmax and decreasing in half-log increments. If the clinical Cmax for an agent had not been determined, the highest concentration tested was 10 microM.
Cell Lines. The patient-derived cancer cell (PDC) lines: 292921-168-R-J2-PDC, K24384-001-R-PDC, and 521955-158-R2-J5-PDC pancreatic carcinomas, 556581-035-R-J1 ovarian carcinoma, 324938-238-R-J1-PDC, 855422-203-R-J1-PDC and 883617-216-R-J1-PDC urothelial bladder carcinomas, 743489-274-T-PDC renal cell carcinoma, 138582-R-J1 Merkel cell tumor, K60290-347-R-J1 and K57222-313-R-J1-PDC glioblastomas, 653999-131-R-J2-PDC, LG0703-F948-PDC, and 349418-098-R-PDC non-small cell lung carcinomas, 885512-296-R-J2-PDC, 171881-019-R-J1-PDC breast carcinomas and 186277-243-T-J2-PDC and 233499-124-R-J2-PDC colon carcinomas were obtained from the NCI Patient-Derived Models Repository (PDMR, https://pdmr.cancer.gov). The established cell lines NCI/ADR-RES (RRID:CVCL_14520 and OVCAR-5 (RRID:CVCL_1628) ovarian carcinomas, 786-O (RRID:CVCL_1051) and A498 (RRID:CVCL_A498) renal cell carcinoma, NCI-H211 (ATCC, cat. CRL-5824; RRID:CVCL_1529), NCI-H196 (ATCC, cat. CRL-5823, RRID:CVCL_1509), SW 1271 (ATCC, cat. CRL-2177, RRID:CVCL_1716) and NCI-H1876 (ATCC, cat. CRL-5902, RRID:CVCL_1503) small cell lung carcinomas, MDA-MB-231 (RRID:CVCL_0062) and MDA-MB-468 (RRID:CVCL_0419)breast carcinomas (10-12). Pooled donor human umbilical vein endothelial cells (HUVEC, Lonza, cat. CC-2519) and human mesenchymal stem cells (hMSC, Lonza, cat. PT-2501) were purchased from Lonza (Walkersville, MD).
Cell Culture. All cells were maintained in an incubator at 37 degrees C and 5% CO2 with 95% humidity. The PDC lines were cultured according to standard operating procedures established by the NCI PDMR (https://pdmr.cancer.gov). Briefly all PDCs were thawed and cultured in Matrigel-coated flasks prepared with a working solution of 1X Ham's F-12 nutrient mix, without supplementation (Invitrogen, Waltham, MA, cat. 11765054), 100 U/mL penicillin-streptomycin (Invitrogen, cat. 15140122), and 2.5% Matrigel (Corning Inc., Corning, NY, cat. 354248) for the first three passages. […]

SMILES | IC50 (curve of compound) | viability, T/C (compound 0.0316 µM) | viability, T/C (compound 0.1 µM) | viability, T/C (compound 0.316 µM) | viability, T/C (compound 1 µM) | viability, T/C (compound 3.16 µM) | viability, T/C (compound 10 µM) | viability, T/C (compound 0.00949 µM) | viability, T/C (compound 0.03 µM) | viability, T/C (compound 0.0949 µM) | viability, T/C (compound 0.3 µM) | other results
NC1CC1c1ccc(-c2cccc(O)c2)cc1 (configuration not stated) | – | – | 99.3% and 104% | 105% [middle of 24 runs] | 99.4% [middle of 24 runs] | 97.5% [middle of 25 runs] | 86.9% [middle of 25 runs] | – | – | – | – | IC50 (compound alone, run of 12/07/2021): > 10 µM
NC1CCC(NC2CC2c2ccccc2)CC1 (configuration not stated) | – | – | 104% [middle of 25 runs] | 110% and 108% (2×) | 102% [middle of 24 runs] | 99.8% [middle of 25 runs] | 91.5% [middle of 23 runs] | – | – | – | – | IC50 (compound alone, run of 11/29/2021): > 10 µM
NS(=O)(=O)OCC1CC(n2ccc3c(NC4CCc5ccccc54)ncnc32)CC1O (configuration not stated) | 0.605 µM and 0.791 µM | – | – | – | – | – | – | 94% and 94.6% | 91% and 98.8% | 87.3% and 86.9% | 72.3% and 74.8% | viability, T/C (compound 0.949 µM): 35.7% and 45.3%; viability, T/C (compound 3 µM): 14.5% and 17.2%
Nc1ccn(C2OC(CO)C(O)C2(F)F)c(=O)n1 (configuration not stated) | < 0.000949 µM | – | – | – | – | – | – | 3.95% and 4.1% | 3.55% and 2.02% | 3.71% and 1.86% | 1.91% and 1.26% | viability, T/C (compound 0.000949 µM): 8.59% and 3.05%; viability, T/C (compound 0.003 µM): 3.76% and 3.9%
Nc1ncn(C2CC(O)C(CO)O2)c(=O)n1 (configuration not stated) | 0.0708 µM and 0.0434 µM | 71% and 57.2% | 40.1% and 33.6% | 27.4% and 18.6% | 19.8% and 12.7% | – | – | – | – | – | – | viability, T/C (compound 0.00316 µM): 95.5% and 91.8%; viability, T/C (compound 0.01 µM): 89.1% and 76.3%
Nc1ncn(C2CC(O)C(CO)S2)c(=O)n1 (configuration not stated) | 0.0141 µM and 0.00682 µM | – | – | – | – | – | – | 53.8% and 40.1% | 38.7% and 27.5% | 21.2% and 11.8% | 6.02% and 3.16% | viability, T/C (compound 0.000949 µM): 86.4% and 84.4%; viability, T/C (compound 0.003 µM): 75.9% and 67.9%
O=C(c1cc(Cc2n[nH]c(=O)c3ccccc23)ccc1F)N1CCN(C(=O)C2CC2)CC1 | > 10 µM | 102% | 102% and 99.6% | 104% and 102% | 105% and 97.3% | 90.7% and 95.4% | 89.6% and 85% | – | – | – | – | –

Now from value to molecule, other results behind:

IC50 (curve of compound) | SMILES | viability, T/C (compound 0.0316 µM) | viability, T/C (compound 0.1 µM) | viability, T/C (compound 0.316 µM) | viability, T/C (compound 1 µM) | viability, T/C (compound 3.16 µM) | viability, T/C (compound 10 µM) | viability, T/C (compound 0.00949 µM) | viability, T/C (compound 0.03 µM) | viability, T/C (compound 0.0949 µM) | viability, T/C (compound 0.3 µM) | other results
3.81 µM and 2.98 µM | COc1ccc([C@@H](O)c2cc(-c3ncnc4cc(N5CCOCC5)ccc34)c(F)cc2Cl)nn1 | 106% | 99.9% and 99.3% | 87.1% and 94.3% | 77.2% and 72.6% | 52.9% and 49.2% | 28.3% and 28% | – | – | – | – | –
> 0.1 µM | Cn1ncnc1C1c2n[nH]c(=O)c3cc(F)cc(c23)NC1c1ccc(F)cc1 (configuration not stated) | 96.5% and 100% | 105% and 101% | – | – | – | – | – | – | – | – | viability, T/C (compound 0.000316 µM): 103% and 101%; viability, T/C (compound 0.001 µM): 109% and 102%; viability, T/C (compound 0.00316 µM): 106% and 103%; viability, T/C (compound 0.01 µM): 99.4% and 99.5%
1.47 µM and 0.9 µM | Nc1ccccc1NC(=O)c1ccc(CNC(=O)OCc2cccnc2)cc1 | – | – | – | – | – | – | 105% and 99.8% | 98.3% and 100% | 88.4% and 94.4% | 81.6% and 75.8% | viability, T/C (compound 0.949 µM): 58.7% and 49.3%; viability, T/C (compound 3 µM): 33.9% and 26.6%
0.0697 µM and 0.0725 µM | O=C(C=Cc1cccc(S(=O)(=O)Nc2ccccc2)c1)NO | – | – | – | – | – | – | 95.3% and 96% | 81.6% and 75.3% | 36.6% and 42% | 16.7% and 17.2% | viability, T/C (compound 0.949 µM): 7.77% and 6.17%; viability, T/C (compound 3 µM): 2.68% and 1.54%
0.00578 µM and 0.00449 µM | O=C(C=Cn1cnc(-c2cc(C(F)(F)F)cc(C(F)(F)F)c2)n1)NNc1cnccn1 | 20.3% and 16.5% | 10.6% and 5.99% | 6.07% and 1.5% | 2.27% and 0.91% | – | – | – | – | – | – | viability, T/C (compound 0.00316 µM): 69.8% and 61.6%; viability, T/C (compound 0.01 µM): 28.8% and 22.1%

Source: PubChem BioAssay AID1918955 (Molecular Pharmacology Branch, DTP, NCI, 2023)
